PMC12521541, “A novel D-peptide modulates DCLK1 gelsolin interactions, reducing PDAC tumor growth” (Scientific Reports, 2025)
Entries after “also recorded” stand apart in the source; their conditions may differ. Like-named read-outs stand apart in the source and are kept apart here. One block for each molecule: values may come before it. Non-standard residues stand in square brackets, D forms with d. Residues, ends and D or L forms follow the SMILES beside them.

Columns and labels:
[1] = test system: PDAC cells (AsPC-1 and CAPAN-1); assay: Proliferation assay (MTT); assay type: cell-based; conditions: OD550, in vitro
Description: (§1) AsPC-1 and CAPAN-1 cells were grown as previously described with varying concentrations of candidate D-peptides[40]. Afterward, we treated cells with TACS MTT Reagent (RND Systems) at 37 C until a dark crystalline precipitate within the cells was observed. NH4OH in DMSO was added and incubated for 10 min while protected from light. We determined the OD550 and averaged it as a percentage of cell proliferation.

DCLK1 isoform 4 / FGF19 = assay: ELISA binding of FGF19 to DCLK1 isoform 4; set-up: species or system human
Description: (§2) Polystyrene microtitre Immulon 2HB plate was coated with freshly prepared (400 ng/50 ml) DCLK1 isoform 4 ([…]) in 0.1 M NaHCO3, pH 8.6, overnight at 4 C. After blocking with 1% gelatin in TTBS at RT, different concentrations of gelsolin or FGF19 were added (2 mg/50ul/well, 1 mg/well, 0.5 mg/well, and 0.25 mg/well at […], proteins diluted in TTBS), and incubated at RT. To study the competitive ability of peptides, we used 20 mg/well of either D-peptide 1, D-peptide 3, D-peptide 5, or the C-terminal peptide antigen for the mAb CBT-15. After incubation at RT, plates were washed with TTBS, and bound gelsolin or FGF19 was detected. Bound plasma gelsolin (ab233671; Abcam, Waltham, MA) was immunodetected with anti-gelsolin Ab (ab11081; Abcam, Waltham, MA) or FGF19 (969-FG-025; Bio-Techne, Minneapolis, MN) immunodetected by anti-FGF19 (sc-390621; Santa Cruz Biotechnology, Dallas, TX). Detection was by alkaline phosphatase-conjugated goat anti-mouse IgG (ab97020; Abcam, Waltham, MA) followed by 1-STEP NBT/BCIP substrate (#34042; ThermoFisher Scientific, Waltham, MA) and quantified at 450 nm on a microplate reader.

DCLK1 isoform 4 / pGSN = assay: ELISA binding of plasma gelsolin (pGSN) to DCLK1 isoform 4; set-up: species or system human; conditions: for effect of peptide on pGSN binding to DCLK1 isoform 4: peptide 20 mg/well (so in the source), pGSN at 2 µg/ml
Description: as §2

[2] = Assessment of DCLK1 D-peptide toxicity in mice; assay type: in vivo; conditions: athymic mice; escalating doses every three days, 750 µg increasing by 500 µg to 4000 µg/mouse; vs saline-treated controls
Description: Supplemental Figure 1. Assessment of DCLK1 D-peptide Toxicity in Mice. Mice received escalating doses of D-peptide 1 every three days, starting with 750 µg (equivalent to 210 nM in blood and extravascular fluid) and increasing by 500 µg per dose, reaching a maximum of 4000 µg/mouse. Monitored toxicity indicators included soft feces, urine stains, depression, rough coat, nasal/ocular discharge, hunching, and body weight changes. […] Major organs were collected, and serum was stored for further biochemical analysis.

Capan-1 cells = assay: PDAC spheroid self-renewal assay, Capan-1; assay type: cell-based; conditions: Matrigel 7 days or 0.3% agar 3 weeks
Description: (§3) AsPC-1 and CAPAN-1 cancer cells were treated with candidate D-peptides or vehicle control and suspended in growth factor-reduced Matrigel™ for 7 days or 0.3% agar for 3 weeks and monitored for spheroid growth. The size and number of spheroids were analyzed, counted, and then compared between the treatment groups[41],[42].

DCLK1 isoform 1 = assay: Crossreactivity with DCLK1 isoform 1; assay type: binding, human
[3] = test system: PDAC cell lines AsPC-1 and Capan-1; assay: Functional bioassays in PDAC cell lines (overall activity); assay type: cell-based; conditions: summary of bioassays in AsPC-1 and Capan-1
Description: as §1, §3

[4] = test system: AsPC-1 pancreatic cancer cells; assay: Colony formation assay (clonogenicity), AsPC-1; assay type: cell-based; conditions: blinded study
AsPC-1 cells = assay: PDAC spheroid self-renewal assay, AsPC-1; assay type: cell-based; conditions: Matrigel 7 days or 0.3% agar 3 weeks
Description: as §3

[5] = test system: DCLK1 isoform 4 / mAb CBT-15; assay: Competition assay: mAb CBT-15 binding to DCLK1 isoform 4; set-up: species or system human; conditions: mean ± SEM; *p < 0.01
[6] = test system: Capan-1 pancreatic cancer cells; assay: Colony formation assay (clonogenicity), Capan-1; assay type: cell-based; conditions: blinded study
AsPC-1 xenografts = assay: AsPC-1 xenograft tumor growth; assay type: in vivo; conditions: for gross inspection of excised xenografts: AsPC-1 flank xenografts, excised after treatment until day 36
Description: Athymic nude (Foxn1^nu/Foxn1^nu) mice were purchased from the Jackson Laboratory (Bar Harbor, Maine) and housed in pathogen-free conditions. AsPC-1 cells (1 × 10^7) were injected subcutaneously into the flanks of 4- to 6-week-old mice (n = 3/group). Tumors were measured using a caliper and the volume was calculated as (length × width^2) × 0.5. Once tumors achieved an average size of ~ 100 mm^3 mice were injected via intraperitoneal injection (10 mg/kg, […]) with selected D-peptides. Treatments were continued every three days until day 36. Xenografts were then excised and evaluated by gross inspection.

DCLK1 isoform 4 = target: T1, DCLK1 isoform 4 (Homo sapiens, UniProt O15075); assay: SPR analysis of DCLK1 isoform 4 with Gelsolin and FGF19; assay type: binding; conditions: for Kinetic 1:1 Ave Kd: kinetic 1:1, average (dissociation rate)
T1 sequence (O15075 687-740 limits assumed): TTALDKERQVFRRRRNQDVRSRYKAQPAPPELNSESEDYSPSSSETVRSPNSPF
Description: Purification of human DCLK1 isoform 4 was performed at the University of Oklahoma Protein Production and Characterization Core Facility (Norman, OK) using an E. coli strain BL21(DE3) pLPP containing the pET19-DCLK1 isoform 4 plasmid. For Bio-layer Interferometry (BLI) experiments, a C-terminal DCLK1 isoform 2/4 His-tagged protein was used (NovoPro, Shanghai, China). All His-tagged proteins were dialyzed using PBS/glycerol to remove imidazole.

plasma gelsolin = target: T2, plasma gelsolin (UniProt P06396 28-782); assay: SPR; format and conditions not told in the text shown (Fig. 4F, G; Suppl. Table 1); conditions: both partners purified
T2 construct: plasma gelsolin (pGSN), bought protein; The source is told for the ELISA only; also called pGSN; source: bought: Abcam (ab233671)

[7] = kinetic 1:1, average, read-out: Kinetic 1:1 Ave KD

T2 sequence (P06396 28-782): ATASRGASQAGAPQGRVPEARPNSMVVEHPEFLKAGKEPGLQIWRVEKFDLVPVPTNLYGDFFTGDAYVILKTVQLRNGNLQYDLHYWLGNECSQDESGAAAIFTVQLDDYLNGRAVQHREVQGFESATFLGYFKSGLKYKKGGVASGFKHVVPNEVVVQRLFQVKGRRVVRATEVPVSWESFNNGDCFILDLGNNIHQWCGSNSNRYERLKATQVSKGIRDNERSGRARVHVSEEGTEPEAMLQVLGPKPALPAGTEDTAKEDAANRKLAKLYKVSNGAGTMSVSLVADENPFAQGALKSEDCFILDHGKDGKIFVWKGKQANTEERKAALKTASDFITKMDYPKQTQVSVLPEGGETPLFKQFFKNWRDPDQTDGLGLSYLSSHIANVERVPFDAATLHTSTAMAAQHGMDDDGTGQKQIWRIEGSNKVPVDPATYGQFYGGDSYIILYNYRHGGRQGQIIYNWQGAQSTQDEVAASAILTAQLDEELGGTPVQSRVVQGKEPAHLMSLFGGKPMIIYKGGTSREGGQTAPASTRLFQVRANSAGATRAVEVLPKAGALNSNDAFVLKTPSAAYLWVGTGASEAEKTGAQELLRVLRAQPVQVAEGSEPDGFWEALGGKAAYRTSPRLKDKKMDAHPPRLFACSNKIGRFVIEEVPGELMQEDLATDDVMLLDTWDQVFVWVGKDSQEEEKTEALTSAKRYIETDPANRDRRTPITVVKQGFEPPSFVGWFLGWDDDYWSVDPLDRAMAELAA

Molecule: NCC(=O)N[C@H](Cc1c[nH]c2ccccc12)C(=O)N[C@H](Cc1ccc(O)cc1)C(=O)NCC(=O)N[C@H](Cc1c[nH]c2ccccc12)C(=O)NCC(=O)N[C@H](CC(=O)O)C(=O)N[C@H](CC(=O)O)C(=O)O [D-peptide 1] (H-G[dW][dY]G[dW]G[dD][dD]-OH; N-terminus and C-terminus assumed)
PDAC cell proliferation [1]: modest in vitro proliferation decreases
effect of peptide on FGF19 binding to DCLK1 isoform 4 (DCLK1 isoform 4 / FGF19; peptide 20 mg/well (so in the source)): weak effect with FGF19-DCLK1 association
effect of peptide on pGSN binding to DCLK1 isoform 4 (DCLK1 isoform 4 / pGSN): did not block the PPI interaction but seemed to improve pGSN binding to DCLK1; also recorded: enhances pGSN binding
effect of peptide on pGSN binding to DCLK1 isoform 4 (DCLK1 isoform 4 / pGSN; listed as Dpeptide 1): binds a distinct site and allosterically enhances pGSN association
toxicity [2]: no adverse effects compared to saline-treated controls; also recorded: no apparent toxicity
spheroid formation / self-renewal capacity (Capan-1 cells): markedly impaired self-renewal capacity
crossreactivity with isoform 1 (DCLK1 isoform 1): minimal crossreactivity with isoform 1
potency/activity in the bioassays [3]: high potency in the bioassays
colony formation (clonogenicity) [4]: significantly reduced colony formation (clonogenicity) at low micromolar concentrations
spheroid formation / self-renewal capacity (AsPC-1 cells): markedly impaired self-renewal capacity
competition with mAb CBT-15 for DCLK1 isoform 4 binding [5]: interacts at a site distinct from CBT-15’s binding site; also recorded: its epitope is distinct from that of mAb CBT-15
colony formation (clonogenicity) [6]: significantly reduced colony formation (clonogenicity) at low micromolar concentrations
gross inspection of excised xenografts (AsPC-1 xenografts): no visible necrosis or hemorrhage was observed
gross inspection of excised xenografts (AsPC-1 xenografts; listed as Dpeptide 1): no gross necrosis, hemorrhage, or cavitation
reduction of tumor volume compared to controls (AsPC-1 xenografts; AsPC-1 xenografts, athymic mice, 10 mg/kg intraperitoneal, until day 36, control peptide D-peptide 3): 60%
tumor size/growth compared to control (AsPC-1 xenografts; AsPC-1 xenografts, every three days for six doses, 36 days, control D-peptide 3 n = 8, D-peptide 1 n = 9, *p < 0.01): significantly reduced tumor size compared to control
general toxicity during xenograft treatment (AsPC-1 xenografts; flank xenograft model): without general toxicity in non–DCLK1–expressing tissues

Molecule: FGF19: FGF19 (969-FG-025; Bio-Techne)
FGF19 binding to DCLK1 isoform 4 (DCLK1 isoform 4 / FGF19): bound to DCLK1 isoform 4 similarly to pGSN
Kinetic 1:1 Ave Ka (DCLK1 isoform 4; kinetic 1:1, average): 5.09E+03 M^-1s^1
Kinetic 1:1 Ave Kd (DCLK1 isoform 4): 9.13E-03 s^1
Kd (DCLK1 isoform 4; [7]): 1790 nM
Kd (DCLK1 isoform 4; steady-state, average, read-out: Steady-state Affinity Ave KD): 970 nM

Second part, the molecule after the results:

concentration of maximum pGSN binding to DCLK1 isoform 4 (DCLK1 isoform 4 / pGSN; DCLK1-coated plates, pGSN gradient, R^2 of 0.94): 2 µg/ml
pGSN binding to DCLK1 isoform 4 (DCLK1 isoform 4 / pGSN; pGSN gradient): consistent, linear binding
Kinetic 1:1 Ave Ka (DCLK1 isoform 4; kinetic 1:1, average): 5.48E+03 M^-1s^1
Kinetic 1:1 Ave Kd (DCLK1 isoform 4): 5.47E-04 s^1
Kd (DCLK1 isoform 4; [7]): 99 nM
Molecule: Gelsolin

Kd (plasma gelsolin): ~100 nM
B1: human DCLK1 isoform 4 (beta-short) (natural protein, UniProt O15075-4 1-433, looked up)
chain: MLELIEVNGTPGSQLSTPRSGKSPSPSPTSPGSLRKQRSSQHGGSSTSLASTKVCSSMDENDGPGEEVSEEGFQIPATITERYKVGRTIGDGNFAVVKECVERSTAREYALKIIKKSKCRGKEHMIQNEVSILRRVKHPNIVLLIEEMDVPTELYLVMELVKGGDLFDAITSTNKYTERDASGMLYNLASAIKYLHSLNIVHRDIKPENLLVYEHQDGSKSLKLGDFGLATIVDGPLYTVCGTPTYVAPEIIAETGYGLKVDIWAAGVITYILLCGFPPFRGSGDDQEVLFDQILMGQVDFPSPYWDNVSDSAKELITMMLLVDVDQRFSAVQVLEHPWVNDDGLPENEHQLSVAGKIKKHFNTGPKPNSTAAGVSVIATTALDKERQVFRRRRNQDVRSRYKAQPAPPELNSESEDYSPSSSETVRSPNSPF
notes: For the library screen the protein was labelled with biotin (NHS-LC-biotin); source: E. coli BL21(DE3) pLPP with the pET19-DCLK1 isoform 4 plasmid, purified
